Data published in US20250026721A1, “COMPOUNDS AND METHODS FOR MODULATING RAS-PI3K” (Vividion Therapeutics, Inc., priority 2023, published 2025).

How the values were obtained:
[1] = test system: pAKT(S473) in H358 cell line; assay: In vitro Phospho-AKT(S473) HTRF analysis in H358 cells; format: cell-based; conditions: Homo sapiens, NCI-H358, 0.5 h; for IC50: H358 cells, 30 minutes at 37° C.; for Emax: read-out: H358 pAKT Imax % control
Method: Example 5. In Vitro Phosgho-AKT(S473) Analysis
Functional activity of the compounds to inhibit pAKT were assessed in FaDu or H358 cell lines as indicated below.
• Complete Media • FBS, Corning catalog #35-010-CV • Anti-Anti, Gibco catalog #15240-062 • 96 well plate, Corning catalog #3610 • TrypLE, Gibco catalog #12604013 • Phospho-AKT(S473) HTRF kit, Cisbio catalog #64AKSPET
Cells were detached from the tissue culture flask with TrypLE. The cells were pelleted at 500×g for 5 min, TrypLe was removed and then resuspended in the necessary volume of media+1% FBS to give the appropriate cell density (17,500 cells/mL for FaDu; 20,000 cells/mL for H358). 100 μL of cell suspension/well was dispensed into the 96-well plate while keeping the outer wells of the plate free of cells and filled with PBS to prevent evaporation of interior wells. The plate was incubated at 37° C. and allowed to adhere overnight. The cells were treated with a dose response of compound and incubated at 37° C. for 30 minutes. The cells were then processed and pAKT(S473) levels were assessed following the specifications of the Cisbio HTRF kit.

PIK3CA = target: T1, PIK3CA (Homo sapiens, UniProt P42336); assay: In vitro ELISA target engagement assay for PIK3CA in Jurkat cellular lysate (competition with PIK3CA Biotin Probe); format: binding; conditions: 1 hour at rt, then 500 nM PIK3CA Biotin Probe, read-out: Elisa Target Engagement Assay (TE50)
T1 construct: endogenous in cells; host or cells: Jurkat cell lysate
T1 sequence (P42336 whole entry): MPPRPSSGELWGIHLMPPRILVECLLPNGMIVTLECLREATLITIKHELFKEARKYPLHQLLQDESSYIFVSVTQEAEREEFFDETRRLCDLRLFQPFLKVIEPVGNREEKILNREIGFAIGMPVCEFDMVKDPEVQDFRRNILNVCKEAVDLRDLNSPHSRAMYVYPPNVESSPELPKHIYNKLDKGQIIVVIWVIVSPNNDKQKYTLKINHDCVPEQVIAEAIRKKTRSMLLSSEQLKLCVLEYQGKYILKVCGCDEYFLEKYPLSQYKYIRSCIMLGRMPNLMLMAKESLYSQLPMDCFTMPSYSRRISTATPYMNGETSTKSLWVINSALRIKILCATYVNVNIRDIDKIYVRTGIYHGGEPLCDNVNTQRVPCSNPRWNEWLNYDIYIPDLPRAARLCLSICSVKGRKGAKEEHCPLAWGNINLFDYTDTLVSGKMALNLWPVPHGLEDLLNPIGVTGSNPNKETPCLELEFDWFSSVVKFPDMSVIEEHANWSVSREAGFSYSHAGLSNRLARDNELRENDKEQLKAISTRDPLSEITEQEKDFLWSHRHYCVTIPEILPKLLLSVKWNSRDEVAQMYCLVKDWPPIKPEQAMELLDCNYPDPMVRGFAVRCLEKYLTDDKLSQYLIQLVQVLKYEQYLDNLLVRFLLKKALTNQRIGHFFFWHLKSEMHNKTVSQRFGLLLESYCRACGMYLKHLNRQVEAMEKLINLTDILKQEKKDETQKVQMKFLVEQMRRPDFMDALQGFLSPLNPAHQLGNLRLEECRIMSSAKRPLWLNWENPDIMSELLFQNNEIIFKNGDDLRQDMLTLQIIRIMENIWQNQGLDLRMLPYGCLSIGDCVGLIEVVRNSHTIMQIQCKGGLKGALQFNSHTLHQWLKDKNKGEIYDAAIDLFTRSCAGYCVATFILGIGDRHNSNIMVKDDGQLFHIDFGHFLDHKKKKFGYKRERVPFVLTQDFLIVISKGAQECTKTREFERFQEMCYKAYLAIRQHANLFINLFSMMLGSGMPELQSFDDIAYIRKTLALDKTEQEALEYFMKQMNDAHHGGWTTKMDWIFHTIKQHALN
T1 sequence (P27986 whole entry partner): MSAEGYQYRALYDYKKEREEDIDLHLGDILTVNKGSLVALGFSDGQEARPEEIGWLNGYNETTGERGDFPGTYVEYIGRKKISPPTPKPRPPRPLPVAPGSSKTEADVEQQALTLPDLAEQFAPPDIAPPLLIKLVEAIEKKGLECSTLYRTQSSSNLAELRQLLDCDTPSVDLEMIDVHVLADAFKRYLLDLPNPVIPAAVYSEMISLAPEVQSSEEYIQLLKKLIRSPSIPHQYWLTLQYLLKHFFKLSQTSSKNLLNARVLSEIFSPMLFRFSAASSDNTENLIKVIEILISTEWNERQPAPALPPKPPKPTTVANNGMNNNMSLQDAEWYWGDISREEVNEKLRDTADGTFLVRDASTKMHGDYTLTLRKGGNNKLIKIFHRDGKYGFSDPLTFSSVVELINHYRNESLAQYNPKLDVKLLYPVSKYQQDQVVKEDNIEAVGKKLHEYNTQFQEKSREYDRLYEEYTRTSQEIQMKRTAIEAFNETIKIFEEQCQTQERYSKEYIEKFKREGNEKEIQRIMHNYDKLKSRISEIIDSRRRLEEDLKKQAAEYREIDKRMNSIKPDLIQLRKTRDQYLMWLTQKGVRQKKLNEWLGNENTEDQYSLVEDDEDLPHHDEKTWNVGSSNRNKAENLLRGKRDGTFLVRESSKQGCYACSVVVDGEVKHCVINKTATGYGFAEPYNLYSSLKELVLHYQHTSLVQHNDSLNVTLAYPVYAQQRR
How it was run: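 Competition format in Jurkat lysate: compound (serial dilutions, top 200 μM) for 1 h at rt, then 500 nM final biotinylated PIK3CA probe for 1 h at rt. Sandwich ELISA with capture antibody and Neutravidin-HRP luminescence read-out measured probe-labelled PIK3CA, giving TE50.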

For C[C@H](/C=C\S(C)(=O)=O)NC(=O)C1(F)CCN(C(=O)[C@H]2CCC(C)(C)C[C@@H]2c2ccccc2Cl)CC1 (racemic) [Compound 255, 1-((1*S,2*S)-2-(2-chlorophenyl)-4,4-dimethylcyclohexane-1-carbonyl)-4-fluoro-N-((R,Z)-4-(methylsulfonyl)but-3-en-2-yl)piperidine-4-carboxamide], the IC50 [1] was 67 nM, the Emax [1] was 86.7% and the IC50 (PIK3CA) was 430 nM.
C[C@H](/C=C\S(C)(=O)=O)NC(=O)[C@@]1(F)CCCN(C(=O)[C@H]2CN(CC(F)(F)F)C[C@H]2c2cccc(F)c2F)CC1 (single isomer, unassigned) [Compound 173, (R)-1-((3*R,4*R)-4-(2,3-difluorophenyl)-1-(2,2,2-trifluoroethyl)pyrrolidine-3-carbonyl)-4-fluoro-N-((R,Z)-4-(methylsulfonyl)but-3-en-2-yl)azepane-4-carboxamide] gave an IC50 [1] of 464 nM, an Emax [1] of 85.5% and an IC50 (PIK3CA) of 540 nM.
C[C@H]1C[C@](F)(C(=O)N[C@@H]2C=CS(=O)(=O)C2)CCN1C(=O)[C@H]1CN(CC(F)(F)F)C[C@H]1c1cccc(F)c1Cl (single isomer, unassigned) [Compound 175, (2*S,4*S)-1-((3*R,4*R)-4-(2-chloro-3-fluorophenyl)-1-(2,2,2-trifluoroethyl)pyrrolidine-3-carbonyl)-N-((R)-1,1-dioxido-2,3-dihydrothiophen-3-yl)-4-fluoro-2-methylpiperidine-4-carboxamide] showed an IC50 [1] of 151 nM, an Emax [1] of 75.6% and an IC50 (PIK3CA) of 620 nM.
For C[C@H](/C=C\S(C)(=O)=O)NC(=O)[C@@]1(F)CCCN(C(=O)[C@H]2CN(CC(C)(F)F)C[C@H]2c2c(F)cccc2Cl)CC1 (single isomer, unassigned) [Compound 183], the IC50 [1] was 56.6 nM, the Emax [1] was 93.2% and the IC50 (PIK3CA) was 78 nM.
C[C@H](/C=C\S(C)(=O)=O)NC(=O)[C@@]1(F)CCCN(C(=O)[C@H]2CN(CC3(F)CC3)C[C@H]2c2c(F)cccc2Cl)CC1 (single isomer, unassigned) [Compound 184, (R)-1-((3*R,4*R)-4-(2-chloro-6-fluorophenyl)-1-((1-fluorocyclopropyl)methyl)pyrrolidine-3-carbonyl)-4-fluoro-N-((R,Z)-4-(methylsulfonyl)but-3-en-2-yl)azepane-4-carboxamide] showed an IC50 [1] of 64.6 nM, an Emax [1] of 102% and an IC50 (PIK3CA) of 85 nM.
C[C@H]1C[C@](F)(C(=O)N[C@@H]2C=CS(=O)(=O)C2)CCN1C(=O)[C@H]1CN(CC(C)(F)F)C[C@H]1c1ccccc1Cl (single isomer, unassigned) [Compound 221, (2*S,4*S)-1-((3R,4R)-4-(2-chlorophenyl)-1-(2,2-difluoropropyl)pyrrolidine-3-carbonyl)-N-((R)-1,1-dioxido-2,3-dihydrothiophen-3-yl)-4-fluoro-2-methylpiperidine-4-carboxamide] gave an IC50 [1] of 123 nM, an Emax [1] of 85% and an IC50 (PIK3CA) of 210 nM.
For C[C@H](/C=C\S(C)(=O)=O)NC(=O)[C@@]1(F)CCCN(C(=O)[C@@H]2CN(CC(C)(F)F)C[C@@H]2c2cccc(F)c2Cl)CC1 (single isomer, unassigned) [Compound 222, (R)-1-((3*S,4*S)-4-(2-chloro-3-fluorophenyl)-1-(2,2-difluoropropyl)pyrrolidine-3-carbonyl)-4-fluoro-N-((R,Z)-4-(methylsulfonyl)but-3-en-2-yl)azepane-4-carboxamide], the IC50 [1] was 146 nM, the Emax [1] was 91% and the IC50 (PIK3CA) was 210 nM.
C[C@H](/C=C\S(C)(=O)=O)NC(=O)[C@@]1(F)CCCN(C(=O)[C@H]2CN(CC(F)(F)F)C[C@H]2c2ccccc2F)CC1 (single isomer, unassigned) [Compound 223, (R)-4-fluoro-1-((3*R,4*R)-4-(2-fluorophenyl)-1-(2,2,2-trifluoroethyl)pyrrolidine-3-carbonyl)-N-((R,Z)-4-(methylsulfonyl)but-3-en-2-yl) azepane-4-carboxamide] was tested, and the IC50 [1] was 346 nM, the Emax [1] was 87.5% and the IC50 (PIK3CA) was 510 nM.
Compound Cc1ccccc1[C@@H]1CN(CC(F)(F)F)C[C@@H]1C(=O)N1CCC[C@](F)(C(=O)N[C@H](C)/C=C\S(C)(=O)=O)CC1 (single isomer, unassigned) [Compound 224, (R)-4-fluoro-N-((R,Z)-4-(methylsulfonyl)but-3-en-2-yl)-1-((3*R,4*R)-4-(o-tolyl)-1-(2,2,2-trifluoroethyl)pyrrolidine-3-carbonyl) azepane-4-carboxamide] has an IC50 [1] of 326 nM, an Emax [1] of 81.2% and an IC50 (PIK3CA) of 520 nM.
C[C@H]1C[C@](F)(C(=O)N[C@@H]2C=CS(=O)(=O)C2)CCN1C(=O)[C@@H]1CN(CC(C)(F)F)C[C@@H]1c1cccc(F)c1Cl (single isomer, unassigned) [Compound 225, (2*S,4*S)-1-((3*S,4*S)-4-(2-chloro-3-fluorophenyl)-1-(2,2-difluoropropyl)pyrrolidine-3-carbonyl)-N-((R)-1,1-dioxido-2,3-dihydrothiophen-3-yl)-4-fluoro-2-methylpiperidine-4-carboxamide] was tested, and the IC50 [1] was 465 nM, the Emax [1] was 78.8% and the IC50 (PIK3CA) was 640 nM.
C[C@H](/C=C\S(C)(=O)=O)NC(=O)[C@@]1(F)CCCN(C(=O)[C@@H]2CN(CC(F)(F)F)C[C@@H]2c2c(F)cc(F)cc2Cl)CC1 (single isomer, unassigned) [Compound 227, (R)-1-((3*S,4*S)-4-(2-chloro-4,6-difluorophenyl)-1-(2,2,2-trifluoroethyl)pyrrolidine-3-carbonyl)-4-fluoro-N-((R,Z)-4-(methylsulfonyl)but-3-en-2-yl)azepane-4-carboxamide] showed an IC50 [1] of 250 nM, an Emax [1] of 102% and an IC50 (PIK3CA) of 340 nM.
Work on C[C@H](/C=C\S(C)(=O)=O)NC(=O)[C@@]1(F)CCCCN(C(=O)[C@H]2CN(CC(F)(F)F)C[C@H]2c2ccccc2Cl)CC1 (single isomer, unassigned) [Compound 272, (*R)-1-((3R,4R)-4-(2-chlorophenyl)-1-(2,2,2-trifluoroethyl)pyrrolidine-3-carbonyl)-4-fluoro-N-((R,Z)-4-(methylsulfonyl)but-3-en-2-yl)azocane-4-carboxamide] yielded an IC50 [1] of 694 nM, an Emax [1] of 89.8% and an IC50 (PIK3CA) of 880 nM.
C[C@H](/C=C\S(C)(=O)=O)NC(=O)[C@@]1(F)CCCN(C(=O)N2CCN(CC(F)(F)F)C[C@H]2c2ccccc2Cl)CC1 (single isomer, unassigned) [Compound 309, (R)-1-((*R)-2-(2-chlorophenyl)-4-(2,2,2-trifluoroethyl)piperazine-1-carbonyl)-4-fluoro-N—((R,Z)-4-(methylsulfonyl)but-3-en-2-yl)azepane-4-carboxamide] was tested, and the IC50 [1] was 276 nM, the Emax [1] was 91.8% and the IC50 (PIK3CA) was 390 nM.
C[C@H](/C=C\S(C)(=O)=O)NC(=O)C1(F)CCN(C(=O)[C@H]2CN(CC(C)(F)F)C[C@H]2c2ccccc2Cl)CC1 [Compound 179, 1-((3R,4R)-4-(2-chlorophenyl)-1-(2,2-difluoropropyl)pyrrolidine-3-carbonyl)-4-fluoro-N-((R,Z)-4-(methylsulfonyl)but-3-en-2-yl)piperidine-4-carboxamide] was tested, and the IC50 [1] was 165 nM, the Emax [1] was 106% and the IC50 (PIK3CA) was 390 nM.
In the case of C[C@H](/C=C\S(C)(=O)=O)NC(=O)[C@@]1(F)CCCN(C(=O)[C@H]2CN(CC3(F)CC3)C[C@H]2c2ccccc2Cl)CC1 [Compound 185, (R)-1-((3R,4R)-4-(2-chlorophenyl)-1-((1-fluorocyclopropyl)methyl)pyrrolidine-3-carbonyl)-4-fluoro-N-((R,Z)-4-(methylsulfonyl)but-3-en-2-yl)azepane-4-carboxamide], the IC50 [1] is reported as 123 nM, the Emax [1] is reported as 95.6% and the IC50 (PIK3CA) is reported as 290 nM.
